Tests used:
[1] = test system: CFA-induced pain model; test: Antiallodynic activity on Complete Freund's Adjuvant (CFA)-induced inflammatory pain model (von Frey); assay type: in vivo, Sprague-Dawley rats; conditions: Rattus norvegicus, ip
Experimental: Male, Sprague-Dawley rats (200-220 g, Nara Bio, Korea) were habituated for 1 week before surgery and allowed free access to food and water throughout the experimentation. Room temperature and humidity were maintained at 24±2° C. and 50±10%, respectively.
CFA-induced inflammatory pain was induced by the procedure of Nagakura et al. (2003) and Gregory P. et al. (2010) with minor modifications. CFA (sigma, USA) was injected into the left plantar with a 100 ul volume under gaseous anesthesia with isoflurane and NO2 with a 4:4 flow ratio. Sham controls were injected with 100 ul of saline and preparation of the vehicle controls were identical to the group treated with compound, except for administration of vehicles without compound in the vehicle control group.
Tactile sensitivity (mechanical allodynia) was evaluated using von Frey monofilaments before and after treatment, and the animals were included in the study only if the withdrawal threshold value was less than 4 g. One week after surgery, CFA-infused animals (n=4˜6), sham-operated animals (n=12), and vehicle-operated animals (n=17) were tested for tactile sensitivity with von Frey monofilaments, with 3 trials for each animal. All animals were placed in a stainless steel mesh chamber and habituated for 30 min in the test cage. The tactile sensitivity for the ipsilateral hind paw was measured using the up-and-down method (Dixon, 1980) with seven von Frey monofilaments (0.4, 1, 2, 4, 6, 8, and 15 g) in 3 trials. The tactile sensitivity test was followed by Dixon's method (Dixon, 1980). The 50% paw withdrawal threshold for each paw was calculated using the following formula: [Xth] log=[vFr] log+ky where [vFr] is the force of the last von Frey used, k=0.2249 which is the average interval (in log units) between the von Frey monofilaments, and y is a value that depends upon the pattern of the withdrawal responses (Dixon, 1980).
The antiallodynic effect of the compound of Example was evaluated at the doses of 10, 30 and 60 mg/kg (n=4˜6), and were intraperitoneally administered in a volume of 5 ul/g by bodyweight in a vehicle of 30% (v/v) PEG. […]
The relative values compared to the sham (% control) were calculated and are shown in Table 4, which show an antiallodynic effect of the compound of examples in the CFA-induced pain model in rats.

[2] = test system: acetic acid-induced writhes; test: Writhing test (acetic acid); assay type: in vivo, ICR mice; conditions: Mus musculus, po, 0.5 h, read-out: Writh test: ED50 mg/kg
Experimental: To examine the pain relief effect of the sulfamate derivative compounds, a writhing test was referring to Fischer, L. G. et al. (2008).
ICR mice (male, 24-28 g; Orient Bio, Korea) were habituated before test in test room for 1 hour. Animals were fasted for 2 hr before administration of compounds. […] All compounds were dissolved in a vehicle of 30% (v/v) PEG 400 or 20% (v/v) Tween 80. The control group was treated with the vehicle without compounds.
[…] Animals were habituated in the cage for 5 min. 5 min after habituation, the number of writhes (abdominal constriction) was counted for 15 minutes referring to Korzeniewska-Rybicka, I. et al. (1998) and compared with that of the control.

[3] = test system: Vincristine-induced pain model; test: Antiallodynic activity in the vincristine-induced pain model (von Frey); assay type: in vivo, Sprague-Dawley rats; conditions: rat, intraperitoneal
Experimental: Male, Sprague-Dawley rats (300-320 g, Nara Bio, Korea) were habituated for 1 week before surgery and allowed free access to food and water throughout the experimentation. Room temperature and humidity were maintained at 24±2° C. and 50±10%, respectively.
The vincristine-induced pain model was established by the procedure of Natsuko et al. (2001) with minor modifications. Vincristine was intravenously infused continuously for 14 days using a mini-osmotic pump as follows: Vincristine sulfate solution (Hospira, Australia) was diluted with 0.9% saline to a final dose of 30 ug/kg. The pumps (Alzet Model 2002, USA) were filled with the vincristine solution and primed by incubation at 37° C. for 4 h before the infusion. Briefly, animals were put under gaseous anesthesia with isoflurane and NO with a 4:4 flow ratio. A catheter made from PE-60 tubing was inserted into an external jugular vein in the rat. Sham controls were prepared in the same manner, with the external jugular vein exposed, but not cut down. Preparation of the vehicle controls were identical to the group treated with compound, except for administration of vehicles without compound in the vehicle control group.
Tactile sensitivity (mechanical allodynia) was evaluated using von Frey monofilaments before and after treatment, and the animals were included in the study only if the withdrawal threshold value was less than 4 g. One week after surgery, vincristine-infused animals (n=6), sham-operated animals (n=12) and vehicle-operated (n=18) animals were tested for tactile sensitivity with von Frey monofilaments with 3 trials in each animal. All animals were placed in a stainless steel mesh chamber and habituated for 30 min in the test cage. The tactile sensitivity for the ipsilateral hind paw was measured using the up-and-down method (Dixon, 1980) with seven von Frey monofilaments (0.4, 1, 2, 4, 6, 8, and 15 g) in 3 trials. The tactile sensitivity test was followed by Dixon's method. The 50% paw withdrawal threshold for each paw was calculated using the following formula: [Xth] log=[vFr] log+ky where [vFr] is the force of the last von Frey used, k=0.2249 which is the average interval (in log units) between the von Frey monofilaments, and y is a value that depends upon the pattern of withdrawal responses (Dixon, 1980).
[…] The test was performed at the peak time of efficacy (0.5 hr) after compound administration.
The relative values compared to the sham (% control) were calculated and are shown in Table 11, which show an antiallodynic effect of the compound of examples in the vincristine-induced pain model in rats.

[4] = test system: Post operation-induced pain model; test: Antiallodynic activity on post operative pain-induced pain model (von Frey); assay type: in vivo, Sprague-Dawley rats; conditions: Rattus norvegicus, ip, 0.5 h, read-out: Post Operation: ED50 mg/kg
Experimental: Male Sprague-Dawley rats (Orient Bio, Korea), 300-320 g, total of 201 rats were used (details in Table 7). Rats were habituated at least 3 days before surgery and free access to food and water (room temperature and humidity were maintained at […] and 50±10%, respectively). The process of performing the post-operation model's surgery was adapted from Brennan et al (1996). At first, rats with allodynia (threshold valueless than 8 g) were excluded in Pre-von Frey Test. During the post-operation surgery, rats were anesthetized under gaseous anesthesia with 2% isoflurane. Rats were laid face down on a plate fixed at 37° C. to prevent against hypothermia. The ipsilateral plantar aspect (left side) of the hind paw was prepared in a sterile manner with a 10% povidone-iodine solution. A longitudinal incision (1 cm) (FIG. 2-A) was made with a blade (number 11) through the skin and fascia of the ipsilateral plantar aspect of the foot, starting from 0.5 cm below the proximal edge of the heel and extending toward the toes. Rats' plantar muscles were elevated and incised longitudinally (FIG. 2-B). After hemostasis with gentle pressure, the skin was opposed with 2 mattress sutures (4-0 Dafilon) (FIG. 2-C). The wound site was covered with a 10% povidone-iodine solution gauze and injected with antibiotics (gentamicin, 8 mg/kg, ip). The sutures were removed under halothane anesthesia approximately 30 hours later, at the end of post-operative day 1.
After 2-3 days of recovery, rats with a good response (threshold less than 4 g) in Pre-von Frey Test were selected. According to this response, we made three groups with each group having equal average responses: Group 1, post-operation and drug treated; Group 2, post-operation and vehicle treated; Group 3, no post-operation and vehicle treated. In this study, Group 3 was the sham control (positive) group. The group 2 was used to check for possible failures to generate post-operative pain.
For efficacy measure, the threshold value of group C was assigned 100% efficacy, and the percentage of the threshold values of group A compared to group C (for each different dose level) were calculated as the efficacies. Base on these efficacy values, ED50 was calculated using log fitting. If there was no clear ED50, then we marked the percent efficacy at the highest tested dose or larger than highest tested dose.
For pain threshold test, all animals were placed in a stainless steel meshed chamber and habituated for 30 min in the test box. The tactile sensitivity of the ipsilateral hind paw was measured using the up-and-down method (Dixon, 1980) with seven von Frey monofilaments (0.4, 1, 2, 4, 6, 8, and 15 g) using 3 trials. The 50% paw withdrawal threshold for each paw was calculated using the following formula: [Xth] log=[vFr] log+ky, where [vFr] is the force of the last von Frey filament used, k=0.2249 which is the average interval (in log units) between the von Frey monofilaments, y which is a value that depends upon the pattern of withdrawal responses, and Xth which is the threshold value (Dixon, 1980).
Drugs were dissolved 30% PEG400 for example 60, 0.9% saline for Pregabalin, 20% Tween80 for Tylenol, 0.9% saline for Topiramate. These vehicles were selected depending on the compound's solubility. Intraperitoneal injection (5 μl/g) was done for all drugs.
The relative values compared to the sham (% control) were calculated and shown in Table 8, which show an antiallodynic effect of the compound of examples on Post operation-induced pain model in rats.

[5] = test system: SNL model; test: Antiallodynic activity in the Chung model (SNL, Spinal Nerve Ligation; von Frey); assay type: in vivo, Sprague-Dawley rats; conditions: Rattus norvegicus, po, 0.5 h, read-out: SNL model: effect (%) compared to control, rat, oral, 3.5 mg/kg administered, 0.5 h
Experimental: Male Sprague-Dawley rats (200-220 g, Orient Bio, Korea) were habituated for 1 week before the experiment and allowed free access to food and water throughout the experimentation. Room temperature and humidity were maintained at 24±2° C. and 50±10%, respectively. The neuropathic surgery (SNL, Spinal Nerve Ligation) model was done as described in Kim and Chung (1992). Briefly, an animal was put under gaseous anesthesia with isoflurane and NO2 with a 4:4 flow ratio. The left lumbar spinal nerves L5 and L6 were isolated and tightly ligated with 4-0 silk thread. The wound was treated with a gentamicin antibiotic solution (4 mg/kg, 4 ul/g by bodyweight), and the wound muscle was closed with Catgut® chrome 4/0 thread and the skin was closed with Dafilon 4/0 thread. Sham controls were prepared in the same manner with the spinal nerves were exposed, but no ligated L5 and L6 nerves. Preparation of the vehicle controls were identical to the group treated with compound, except for administration of vehicles without compound in the vehicle control group.
Tactile sensitivity (mechanical allodynia) was evaluated using von Frey monofilaments before and after treatment and animals the animals were included in the study only if the withdrawal threshold value was less than 4 g. One week after surgery, SNL-operated animals (n=4˜6), sham-operated animals (n=4˜10) and vehicle-operated animals (n=4˜13) were tested for tactile sensitivity with von Frey monofilaments with 3 trials in each animal. All animals were placed in a stainless steel mesh chamber and habituated for 30 min in the test cage. The tactile sensitivity for ipsilateral hind paw was measured using the up-and-down method (Dixon, 1980) with seven von Frey monofilaments (0.4, 1, 2, 4, 6, 8, and 15 g) in 3 trials. The tactile sensitivity test was followed by Dixon's method (Dixon, 1980). The 50% paw withdrawal threshold for each paw was calculated using the following formula: [Xth] log=[vFr] log+ky where [vFr] is the force of the last von Frey used, k=0.2249 which is the average interval (in log units) between the von Frey monofilaments, and y is a value that depends upon the pattern of withdrawal responses (Dixon, 1980).
All animals were fasted for 18 h before the administration of the compounds. The antiallodynic effect of the compounds were evaluated at the various doses (n=5˜6), orally administered in a volume of 5 ul/g by bodyweight in a vehicle of 30% (v/v) PEG 400 (Example 7) or 20% (v/v) Tween 80 (Examples 5 and 6) or saline. […]
The relative values compared to the sham group (% control) were calculated and are shown in Table 5, which show an antiallodynic effect of the test compounds in the SNL model in rats.

CC1(C)Oc2ccccc2[C@@H](COS([NH-])(=O)=O)O1.[Na+] [Example 59, Sodium (S)-(((2,2-dimethyl-4H-benzo[d][1,3]dioxin-4-yl)methoxy)sulfonyl)amide Trihydrate]
ED50 ([1]; 0.5 h, read-out: CFA model: ED50 mg/kg): 20.2 mg/kg
ED50 [2]: 81.4 mg/kg
ED50 ([3]; ip, 0.5 h): 2.6 mg/kg
ED50 [4]: 10.9 mg/kg

CC1(C)Oc2ccccc2[C@@H](COS([NH-])(=O)=O)O1.[K+] [Example 71, Potassium (S)-(((2,2-dimethyl-4H-benzo[d][1,3]dioxin-4-yl)methoxy)sulfonyl)amide]
response vs control in vivo at 25 mg/kg ([1]; read-out: CFA model: effect (%) compared to control): 24.7%
Vincristine model: effect (%) compared to control ([3]; 2.4 mg/kg administered, time not given): (96.2%)
response vs control in vivo at 3.5 mg/kg [5]: 15.9%

Source: patent US10081615B2, “Sulfamate derivative compounds for use in treating or alleviating pain” (Bio-Pharm Solutions Co., Ltd., priority 2013, dated 2018)
